Data as given in the supplement of paper PMC10307832.

Experiments:
Experiment in all cases: relative viability (nuclei count vs DMSO), 5 days (fraction); higher = more cells survive
Daporinad + Pemetrexed = compound: O=C(/C=C/c1cccnc1)NCCCCC1CCN(C(=O)c2ccccc2)CC1 [Daporinad] + Nc1nc2[nH]cc(CCc3ccc(C(=O)N[C@@H](CCC(=O)O)C(=O)O)cc3)c2c(=O)[nH]1 [Pemetrexed] (partner 0.2 µM)
In short: (§1)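 Lung cancer cell lines in 1536-well plates were dosed by pin tool the day after seeding, either with one drug alone or with a fixed anchor-drug dose plus five library-drug doses (not always all listed) in √10 steps. After 5 days, cells were fixed and their nuclei stained in one step (final 0.05% Triton X-100, 1% formaldehyde, 1 ug/ml Hoechst), then counted on 4× images. Relative viability is the nuclei count in treated wells divided by that in vehicle wells. Values are medians of duplicate plates.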

Daporinad + Olaparib = compound: O=C(/C=C/c1cccnc1)NCCCCC1CCN(C(=O)c2ccccc2)CC1 [Daporinad] + O=C(c1cc(Cc2n[nH]c(=O)c3ccccc23)ccc1F)N1CCN(C(=O)C2CC2)CC1 [Olaparib] (partner 8 µM)
In short: as §1

Daporinad + Crizotinib = compound: O=C(/C=C/c1cccnc1)NCCCCC1CCN(C(=O)c2ccccc2)CC1 [Daporinad] + C[C@@H](Oc1cc(-c2cnn(C3CCNCC3)c2)cnc1N)c1c(Cl)ccc(F)c1Cl [Crizotinib] (partner 1 µM)
In short: as §1

R406 + Linsitinib = compound: COc1cc(Nc2ncc(F)c(Nc3ccc4c(n3)NC(=O)C(C)(C)O4)n2)cc(OC)c1OC [R406] + C[C@]1(O)C[C@@H](c2nc(-c3ccc4ccc(-c5ccccc5)nc4c3)c3c(N)nccn32)C1 [Linsitinib] (partner 1 µM)
In short: as §1

Row | Cell Line | relative viability (Daporinad + Pemetrexed; first compound 0.0005 µM) | relative viability (Daporinad + Pemetrexed; first compound 0.001581 µM) | relative viability (Daporinad + Pemetrexed; first compound 0.005 µM) | relative viability (Daporinad + Pemetrexed; first compound 0.01581 µM) | relative viability (Daporinad + Olaparib; first compound 0.0005 µM) | relative viability (Daporinad + Olaparib; first compound 0.001581 µM) | relative viability (Daporinad + Olaparib; first compound 0.005 µM) | relative viability (Daporinad + Olaparib; first compound 0.01581 µM) | relative viability (Daporinad + Crizotinib; first compound 0.0005 µM) | relative viability (Daporinad + Crizotinib; first compound 0.001581 µM) | relative viability (Daporinad + Crizotinib; first compound 0.005 µM) | relative viability (Daporinad + Crizotinib; first compound 0.01581 µM) | relative viability (R406 + Linsitinib; first compound 0.08 µM) | relative viability (R406 + Linsitinib; first compound 0.253 µM) | relative viability (R406 + Linsitinib; first compound 0.8 µM) | relative viability (R406 + Linsitinib; first compound 2.53 µM) | relative viability (R406 + Linsitinib; first compound 8 µM)
1 | ChaGo-K-1 | 0.255 | 0.248 | 0.248 | 0.239 | 0.34 | 0.248 | 0.258 | 0.196 | 1.15 | 1.18 | 0.896 | 0.379 | – | – | – | – | –
2 | NCI-H522 | 0.983 | 1.3 | 1.09 | 0.668 | 0.659 | 0.621 | 0.573 | 0.49 | – | – | – | – | – | – | – | – | –
3 | NCI-H1299 | – | – | – | – | 0.972 | 0.857 | 0.904 | 0.855 | 0.969 | 0.963 | 0.974 | 1.01 | 0.979 | 1.09 | 1.13 | 0.93 | 0.496
4 | NCI-H1650 | 0.426 | 0.395 | 0.458 | 0.391 | 0.724 | 0.601 | 0.431 | 0.443 | 1.12 | 1.09 | 1 | 0.764 | – | – | – | – | –
5 | SW 900 | 0.486 | – | 0.506 | 0.496 | 0.624 | – | 0.572 | 0.375 | – | – | – | – | – | – | – | – | –
6 | NCI-H2170 | 0.277 | 0.25 | 0.252 | 0.252 | 0.56 | 0.57 | 0.609 | 0.337 | 1.19 | 0.723 | 1.2 | 1.27 | – | – | – | – | –
7 | NCI-H1395 | 0.839 | 1.05 | 0.896 | 0.927 | 0.436 | 0.471 | 0.432 | 0.425 | – | – | – | – | 1.02 | 1.26 | 1.18 | 0.866 | 0.727
8 | A549 | – | – | – | – | 0.324 | 0.184 | 0.128 | 0.0773 | 0.903 | 0.777 | 0.844 | 0.546 | 0.52 | 0.659 | 0.619 | 0.584 | 0.418
9 | NCI-H1793 | 0.727 | 1.03 | 1 | 1.05 | 0.829 | 0.952 | 0.81 | 0.835 | – | – | – | – | 0.703 | 1.01 | 1.2 | 0.57 | 0.376
10 | NCI-H727 | – | – | – | – | 0.571 | 0.682 | 0.623 | 0.539 | 0.713 | 0.786 | 0.938 | 0.698 | 0.252 | 0.28 | 0.319 | 0.35 | 0.237
11 | NCI-H1563 | 0.722 | 0.655 | 0.873 | 0.641 | – | – | – | – | 0.85 | 0.857 | 0.772 | 0.623 | 1.12 | 1.31 | 1.29 | 1.2 | 1.16
12 | ABC-1 | – | – | – | – | 1 | 0.82 | 0.781 | 0.582 | 0.862 | 1.23 | 1.02 | 0.68 | 0.863 | 1.03 | 0.803 | 0.594 | 0.555
